Data taken from US11724998B2, “PXR agonists and uses thereof for gut barrier dysfunction treatment and prevention” (Albert Einstein College of Medicine, priority 2017, dated 2023).

Experiments:
[1] = biological target: T1, AhR (Homo sapiens, UniProt P35869); experiment: AhR activation, AZ-AHR (stably co-transfected HepG2) reporter cells; format: cell-based; set-up: endogenous in cells; host or cells: AZ-AHR (HepG2); conditions: to a much lesser extent than FKK 2 and 9; FIG. 6B
T1 sequence (P35869 11-848): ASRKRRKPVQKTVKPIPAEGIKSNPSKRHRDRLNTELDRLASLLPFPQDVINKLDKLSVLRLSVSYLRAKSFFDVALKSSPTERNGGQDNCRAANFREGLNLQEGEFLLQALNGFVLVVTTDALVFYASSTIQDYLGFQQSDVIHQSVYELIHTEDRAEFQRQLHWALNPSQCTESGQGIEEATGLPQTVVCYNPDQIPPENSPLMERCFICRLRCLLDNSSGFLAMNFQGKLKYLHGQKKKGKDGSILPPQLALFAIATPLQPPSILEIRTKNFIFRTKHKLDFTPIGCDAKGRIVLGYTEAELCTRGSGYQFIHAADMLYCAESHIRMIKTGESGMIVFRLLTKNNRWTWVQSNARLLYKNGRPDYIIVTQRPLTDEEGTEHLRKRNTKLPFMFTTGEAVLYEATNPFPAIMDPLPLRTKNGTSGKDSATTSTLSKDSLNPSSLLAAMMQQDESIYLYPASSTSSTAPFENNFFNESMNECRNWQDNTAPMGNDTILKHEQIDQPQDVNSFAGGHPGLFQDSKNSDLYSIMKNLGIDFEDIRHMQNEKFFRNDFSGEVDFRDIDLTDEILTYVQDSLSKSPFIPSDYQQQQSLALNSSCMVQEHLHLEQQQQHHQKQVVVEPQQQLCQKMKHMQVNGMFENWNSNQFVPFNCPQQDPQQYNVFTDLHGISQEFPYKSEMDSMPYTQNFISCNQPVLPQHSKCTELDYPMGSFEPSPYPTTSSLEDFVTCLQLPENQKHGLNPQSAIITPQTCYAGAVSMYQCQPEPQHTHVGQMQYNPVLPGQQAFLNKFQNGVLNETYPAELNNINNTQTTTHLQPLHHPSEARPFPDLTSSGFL
Procedure: (§1) FIG. 6A-6E. Activation and inhibition studies with different FKK compounds. (A) PXR activation, LS180 cells (upper), and PXR inhibition, LS180 cells, co-incubation with RIF (lower). (B) AhR activation, AZ-AHR cells (upper), and AhR inhibition, AZ-AHR cells, co-incubation with TCDD (lower). (C) GR activation, AZ-GR cells (upper), and VDR activation, IZ-VDRE cells (lower). (D) TR activation, PZ-GR cells (upper), and AR activation, AIZ-AR cells (lower). (E) Displacement of radiolabeled 9-cis-retinoic acid (RA) by FKK compounds.
(§2) All the synthesized compounds and intermediates were tested for their potential to activate PXR and/or AhR via luciferase assays. The PXR activation assays were performed by co-transfecting full-length expressing human PXR plasmid (91) and p3A4 luciferase reporter (92) in LS180 or Caco-2 cells. AhR activation conducted using stably co-transfected HepG2 reporter cells as previously described (93). […] With the exception of FKK6, there was no significant inhibition of TCDD-induced AhR activation. […] Independent verification of AhR activity of randomly selected compounds—FKK 5, 6 and 9—was performed in a separate laboratory (GHP). Nuclear receptor selectivity was assessed for FKK compounds for GR, ADR, TR and AR using cell-based luciferase assays previously described (93-102). There was no observed biologically significant (>2-fold) induction of nuclear receptor activity (FIG. 6C). RXR ligand displacement is only significant for FKK1 and FKK8 (FIG. 6D).

[2] = system: RXR; experiment: RXR ligand displacement (radiolabeled 9-cis-retinoic acid); format: binding; conditions: displacement of radiolabeled 9-cis-retinoic acid
Procedure: as §1
as §2, with “There was no observed biologically significant (>2-fold) induction of nuclear receptor activity (FIG. 6C). RXR ligand displacement is only significant for FKK1 and FKK8 (FIG. 6D).” left out

[3] = system: PXR target genes (CYP3A4, MDR1); conditions: human
[4] = biological target: T2, PXR (Homo sapiens, UniProt O75469); experiment: PXR inhibition, LS180 cells, co-incubation with RIF; format: cell-based; set-up: co-transfecting full-length expressing human PXR plasmid (91) and p3A4 luciferase reporter (92) in LS180 or Caco-2 cells; expressed in transfected cells; host or cells: LS180; conditions: FIG. 6A
T2 sequence (O75469 1-434): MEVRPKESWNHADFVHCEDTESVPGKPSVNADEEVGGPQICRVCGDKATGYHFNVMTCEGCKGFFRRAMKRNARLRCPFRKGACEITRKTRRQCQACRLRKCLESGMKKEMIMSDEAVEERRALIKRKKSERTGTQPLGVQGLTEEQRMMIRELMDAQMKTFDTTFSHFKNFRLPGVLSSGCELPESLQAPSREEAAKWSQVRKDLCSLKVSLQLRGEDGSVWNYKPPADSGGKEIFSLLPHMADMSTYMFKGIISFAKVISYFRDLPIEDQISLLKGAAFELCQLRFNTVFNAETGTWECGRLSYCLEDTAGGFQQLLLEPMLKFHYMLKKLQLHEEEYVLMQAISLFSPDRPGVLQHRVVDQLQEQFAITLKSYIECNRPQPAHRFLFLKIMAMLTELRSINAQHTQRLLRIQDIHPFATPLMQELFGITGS
Procedure: as §1
as §2, with “There was no observed biologically significant (>2-fold) induction of nuclear receptor activity (FIG. 6C). RXR ligand displacement is only significant for FKK1 and FKK8 (FIG. 6D).” left out

- RXR ligand displacement [2]: significant
- CYP3A4 mRNA induction [3]: 1.5 fold
Compound: O=S(=O)(c1ccccc1)n1c(C(O)Cc2cc3ccccc3[nH]2)cc2ccccc21 (stereo not shown) [FKK8]
- AhR activation profile [1]: variable degrees of dose-dependent AhR activation
- rifampicin-dependent PXR antagonism (inhibition) [4]: rifampicin-dependent PXR antagonism (inhibition)
